In patent US20050276765A1, “Preventing skin damage” (priority 2004, published 2005):

Experiments:
back skin of mice = assay: Primary irritation score on clipped back skin of mice; assay type: in vivo, mice (FVB strain); details: for irritation category (0-4): 5 μl topical daily
Experimental: A third primary irritation experiment was performed. Back skin of mice (FVB strain, female, 7 weeks of age, n=3-4/group) was clipped of hair with an electric clipper and 5 μl of each solution was topically applied. The following day, irritation was evaluated according to five categories (0: no irritation, 1; slight irritation, 2:clear irritation, 3:strong irritation, 4:severe irritation) and 5 μl of each solution was topically applied. This procedure was continued for a total of five consecutive days.

mice ears = assay: Mouse ear thickness after a single UVB irradiation and topical application for five days
Experimental: Prior to the experiment, the thickness of mice ears (FVB strain, female, 7 weeks of age, n=3-4/group) was measured with a thickness gauge (Mitsutoyo Corp.). […] The following day, ear thickness of both ears was measured. This procedure was continued for five consecutive days.
In a second experiment, solution was applied to each ear after exposure to UVB irradiation. The following day, the thickness of both ears was measured. UVB irradiation was only applied once and solutions were administered a total of five times (once a day/consecutive five days).

hairless Skh-1 mice = assay: UVB-induced chronic skin damage: skin wrinkling score after 10 weeks; assay type: in vivo, mice (hairless Skh-1)
Experimental: Mice of groups 1 and 3 were exposed to UVB irradiation, using fluorescent lamps (Southern New England Ultraviolet). The height of the lamps was adjusted to deliver 0.35 mW/cm^2 at the dorsal skin surface of the mice. Samples were applied (100 μl) on the back of UVB irradiated and non-UVB irradiated mice. This procedure was repeated three times weekly for 10 weeks. […] The total cumulative dose of UVB was 6.54 J/cm^2.
After 10 weeks, skin wrinkling was evaluated by two independent persons according to five categories (0: no wrinkle; 1: slight wrinkle, 2: clear wrinkle, 3: strong wrinkle; 4: severe wrinkle).

**Q.** Which results are given for `Cn1c(=O)c2c(ncn2C)n(C)c1=O` [caffeine]?
**A.** irritation category (0-4) (back skin of mice; 0.5% caffeine in DMSO, day 0): 0; irritation category (0-4) (back skin of mice; 0.5% caffeine in DMSO, day 1): 0; irritation category (0-4) (back skin of mice; 0.5% caffeine in DMSO, day 2): 0; irritation category (0-4) (back skin of mice; 0.5% caffeine in DMSO, day 3): 0; irritation category (0-4) (back skin of mice; 0.5% caffeine in DMSO, day 4): 0; irritation category (0-4) (back skin of mice; 0.5% caffeine in DMSO, day 5): 0; irritation category (0-4) (back skin of mice; 0.5% caffeine in acetone, day 0): 0; irritation category (0-4) (back skin of mice; 0.5% caffeine in acetone, day 1): 0; irritation category (0-4) (back skin of mice; 0.5% caffeine in acetone, day 2): 0; irritation category (0-4) (back skin of mice; 0.5% caffeine in acetone, day 3): 0; irritation category (0-4) (back skin of mice; 0.5% caffeine in acetone, day 4): 0; irritation category (0-4) (back skin of mice; 0.5% caffeine in acetone, day 5): 0; irritation category (0-4) (back skin of mice; 1.2% caffeine in acetone, day 0): 0; irritation category (0-4) (back skin of mice; 1.2% caffeine in acetone, day 1): 0; irritation category (0-4) (back skin of mice; 1.2% caffeine in acetone, day 2): 0; irritation category (0-4) (back skin of mice; 1.2% caffeine in acetone, day 3): 0; irritation category (0-4) (back skin of mice; 1.2% caffeine in acetone, day 4): 0; irritation category (0-4) (back skin of mice; 1.2% caffeine in acetone, day 5): 0; irritation category (0-4) (back skin of mice; 2% caffeine in DMSO, day 0): 0; irritation category (0-4) (back skin of mice; 2% caffeine in DMSO, day 1): 0; irritation category (0-4) (back skin of mice; 2% caffeine in DMSO, day 2): 0; irritation category (0-4) (back skin of mice; 2% caffeine in DMSO, day 3): 0; irritation category (0-4) (back skin of mice; 2% caffeine in DMSO, day 4): 0; irritation category (0-4) (back skin of mice; 2% caffeine in DMSO, day 5): 0; irritation in mouse skin (back skin of mice; back skin, five consecutive days): did not cause irritation; primary irritancy (back skin) (back skin of mice; concentration of 2% in DMSO and 1.2% in acetone): did not have primary irritancy; ear thickness compared to solvents (DMSO or acetone) (mice ears; 2% in DMSO or 1.2% in acetone, with or without UVB): did not increase ear thickness; primary irritancy (ear) (mice ears; concentration of 2% in DMSO or 1.2% in acetone): did not have primary irritancy; UVB-induced wrinkle formation (hairless Skh-1 mice; 1.2% in acetone, topical, 10 weeks): effective at reducing UVB-induced wrinkle formation; skin wrinkling score, average (hairless Skh-1 mice; group 2: No UVB + 1.2% caffeine in acetone, 100 μl on back three times weekly, after 10 weeks, scale 0 no wrinkle to 4 severe wrinkle): 0
